Columns and labels:
[1] = target: T1, Tt-CII (SDHA/SDHB hydrophilic head) (Tetrahymena thermophila, UniProt Q23DI3); experiment: cryo-EM structure; type: binding
T1 construct: gene TTHERM_00047080

[2] = target: T2, NDUA9 (Tt-CI subunit) (Tetrahymena thermophila, UniProt I7MLH2); experiment: cryo-EM structure; type: binding; details: printed only as NDP group (PDB ligand code)
T2 construct: gene TTHERM_00557760
T2 sequence (I7MLH2 27-362): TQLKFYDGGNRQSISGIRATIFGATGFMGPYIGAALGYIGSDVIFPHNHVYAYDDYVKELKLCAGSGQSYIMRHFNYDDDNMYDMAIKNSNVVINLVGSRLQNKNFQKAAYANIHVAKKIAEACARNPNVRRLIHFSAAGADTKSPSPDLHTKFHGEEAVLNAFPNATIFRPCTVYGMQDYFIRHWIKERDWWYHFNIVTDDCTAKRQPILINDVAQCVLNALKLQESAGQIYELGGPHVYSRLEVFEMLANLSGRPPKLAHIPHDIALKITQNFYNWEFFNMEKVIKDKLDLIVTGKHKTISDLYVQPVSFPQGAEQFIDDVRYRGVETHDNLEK
Source text: cryo-EM structure on NDUA9 (Tt-CI subunit) | NDP group of NDUA9 and the interfacial heme […]1

[3] = target: T1, Tt-CII (SDHA/SDHB hydrophilic head); experiment: cyt c reduction/oxidation, […] nm; type: biochemical; details: 5 mM malonate; 5 mM succinate, 50 uM decylubiquinone, 100 uM Tt-cyt c, 10 nM megacomplex, pH 7.4, 0.1% digitonin, room temperature

T1 sequence (Q23DI3 1-636): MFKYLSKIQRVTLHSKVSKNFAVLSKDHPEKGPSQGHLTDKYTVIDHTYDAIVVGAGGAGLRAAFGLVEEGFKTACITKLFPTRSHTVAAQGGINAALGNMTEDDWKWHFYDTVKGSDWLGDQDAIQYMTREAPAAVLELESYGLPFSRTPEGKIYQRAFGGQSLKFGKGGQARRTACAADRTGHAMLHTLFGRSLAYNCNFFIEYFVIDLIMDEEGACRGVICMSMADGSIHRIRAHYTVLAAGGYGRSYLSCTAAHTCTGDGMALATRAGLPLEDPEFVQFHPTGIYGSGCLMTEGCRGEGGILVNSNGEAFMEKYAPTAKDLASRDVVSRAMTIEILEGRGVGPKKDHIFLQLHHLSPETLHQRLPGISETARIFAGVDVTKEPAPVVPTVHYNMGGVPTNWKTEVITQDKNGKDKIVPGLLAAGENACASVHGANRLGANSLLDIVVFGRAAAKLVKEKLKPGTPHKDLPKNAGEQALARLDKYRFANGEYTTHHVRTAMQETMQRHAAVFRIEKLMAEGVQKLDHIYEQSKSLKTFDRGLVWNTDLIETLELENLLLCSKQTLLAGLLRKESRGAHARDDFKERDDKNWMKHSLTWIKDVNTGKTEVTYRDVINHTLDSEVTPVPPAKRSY
T1 sequence (I7M403 21-312 partner): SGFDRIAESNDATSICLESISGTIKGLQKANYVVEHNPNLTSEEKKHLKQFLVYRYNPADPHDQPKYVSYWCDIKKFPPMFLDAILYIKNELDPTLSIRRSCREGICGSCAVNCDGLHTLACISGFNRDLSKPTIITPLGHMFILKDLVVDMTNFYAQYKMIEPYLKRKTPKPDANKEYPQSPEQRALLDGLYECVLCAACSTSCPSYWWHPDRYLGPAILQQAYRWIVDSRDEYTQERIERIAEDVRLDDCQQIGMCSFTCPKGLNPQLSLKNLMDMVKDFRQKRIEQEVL

## Cc1cc2nc3c(=O)[nH]c(=O)nc-3n(C[C@H](O)[C@H](O)[C@H](O)COP(=O)(O)OP(=O)(O)OC[C@H]3O[C@@H](n4cnc5c(N)ncnc54)[C@H](O)[C@@H]3O)c2cc1C [FAD]
[1]
  cryo-EM structure: highly conserved to known CII structures with the FAD and three iron-sulfur clusters in place

## NC(=O)C1=CN([C@@H]2O[C@H](COP(=O)(O)OP(=O)(O)OC[C@H]3O[C@@H](n4cnc5c(N)ncnc54)[C@H](OP(=O)(O)O)[C@@H]3O)[C@@H](O)[C@H]2O)C=CC1 [NDP]
[2]
  cryo-EM structure: NDP group of NDUA9 and the interfacial heme c SDHTT1

## O=C(O)CC(=O)O [malonate]
[3]
  cyt c reduction/oxidation, 550 nm: NADH and succinate-dependent activities could be inhibited by CI inhibitor rotenone and CII inhibitor malonate

Source: article PMC10227065, “Structures of Tetrahymena thermophila respiratory megacomplexes on the tubular mitochondrial cristae” (Nature Communications, 2023)
